Results on 10 compounds are retold here after US5604095A, “Unsymmetrically linked bisnaphthalimides as antitumor agents” (Cancer Therapy & Research Center, priority 1994, dated 1997).

In one data set the test system is topoisomerase II. Conditions: Hsiang et al., 1989; cited from earlier work.
A further data set concerns human cancers. Particulars: literature; cited from earlier work.
In the next data set the test system is B16 melanoma. Briefly: In vivo tumor inhibiting activity vs. B16 melanoma in B6D2F1 mice. Particulars: for Wt. Ch. (Day 7): q.d. × 5, i.p.
The next data set has as its system DNA. Briefly: Ethidium bromide displacement assay, DNA binding and AT/GC selectivity. Conditions: for Ratio (AT/GC): FI50 poly(dA.dT) / FI50 poly(dG.dC). The procedure: (§1) Stock Solutions. A 10X Binding solution was prepared by combining 0.93 ml of an aqueous NaCl solution (5M), 2.0 ml of an aqueous Tris HCl (500 mM) solution, 0.1 ml of an EDTA solution (500 mM) and 46.97 ml of water. The resultant solution was 93 mM in NaCl, 20 mM in Tris HCl, and 1 mM in EDTA. Stock DNA solution were prepared as follows: Poly (dG.dC)-(dG.dC) (ε254=8.4/mM; 27-7910-02), poly (dA.dT)-(dA.dT) (ε262=6.6/mM; 27-7870-02), and lambda DNA (δ260-7.0/mM; 27-4111-01) were purchased from Pharmacia. Solutions were prepared by resuspending either poly (dG.dC)-(dG.dC) or poly (dA.dT)-(dA.dT)in 1 ml of 10X DNA Binding Solution. Lambda DNA is already in solution as purchased.
(§2) Determination of concentration of the stock DNA solutions. Poly (dG.dC) - (dG.dC), poly (dA.dt) - (dA.dt) and lambda DNA concentrations were determined as follows: 980 μl of 10X DNA Binding Solution was pipetted into a 1 ml cuvette. A blank was run on the UV spectrophotometer. 20 μl of the DNA stock of unknown concentration was then added into the cuvette. The sample was then scanned between 210 nm to 500 nm and the absorbance recorded at 254 nm for poly (dG.dC)-(dG.dC), at 262 nm for poly (dA.dT)-(dA.dT) and at 260 nm for lambda DNA. The solution was transferred to a clean tube. This procedure was followed for three different solutions with the absorbance taken as the average of the three. The concentration of poly (dG.dC)-(dG.dC) stock was calculated to be A254 /8.4×1000 (in μM). The concentration of poly (dA.dT) - (dA.dT) stock was calculated to be A262 /6.6×1000 (in μM). The concentration of lambda DNA stock was calculated to be A260 /7.0×1000 (in μM).
Ethidium Bromide Displacement Assay. The binding of the bis-naphthalimides to DNA and to synthetic polynucleotide duplexes was determined by an ethidium bromide displacement assay that measures the reduction of fluorescence when ethidium bromide is displaced from DNA (Baguley, 1981). The fluorescence intensity of a 3 ml solution containing 9.3 mM NaCl, 2 mM Tris-HCI (pH 7.0), 100 μM EDTA, 1 μM DNA (in nucleotides) and 1.26 μM ethidium bromide in a quartz cuvette was measured at the excitation (546 nm) and emission (600 nm) wavelengths on a Shimadzu RF5000U spectrofluorometer. Graded concentrations of agent were then added and the fluorescence intensity was measured. The concentration of compound required to reduce the fluorescence intensity by 50% of that of control (FI50) was determined. Therefore, the lower the FI50 the stronger the binding affinity a particular compound has for DNA. […]

Another data set relates to B16 melanoma cell line. Briefly: Growth inhibition (MTT), B16 melanoma cell line. Type of data set: cell-based, murine. Conditions: for IC50: B16, 3 days incubation, MTT. An excerpt: (§3) P388 murine leukemic cell line was obtained from the DCT Tumor Repository (National Cancer Institute, Frederick Cancer Research and Development, Frederick Md. 21702). HT29 Human Colon Carcinoma cell line was obtained from the American Type Culture Collection (12301 Parklawn Drive, Rockville, Md. 20852). B16 Melanoma cell line was obtained from DuPont Merck Pharmaceutical Company (Glenolden, Pa. 19036). MCF-7 Human Breast Carcinoma cell line was a gift from Dr. K. Osborne (Department of Medicine, The University of Texas Health Science Center at San Antonio, San Antonio, Tex. 78284). All cell lines were incubated at 37° C. in a humidified atmosphere of 5% CO2 -95% air. Murine B16 melanoma cell line was grown in RPMI 1640 medium supplemented with 10% heat-inactivated fetal bovine serum, 2 mM L-glutamine, 50 units/ml penicillin, 50 μg/ml streptomycin, 25 μg/ml gentamycin, 0.75% sodium bicarbonate, 10 mM HEPES buffer (pH 7.4), and 0.06 mg/ml AntiPPLO. Murine P388 leukemic and the human HT-29 colon adenocarcinoma cell lines were maintained in RPMI 1640 medium supplemented with 10% heat-inactivated fetal bovine serum. MCF-7M human breast adenocarcinoma was maintained in IMEM medium supplemented with 5% non heat-inactivated fetal bovine serum and 1 nM insulin.
(§4) Exponentially growing cells (1-2×10^3 cells, unless specified otherwise) in 0.1 ml medium were seeded on day 0 in a 96-well microtiter plate. On day 1, 0.1 ml aliquots of medium containing graded concentrations of test compounds were added in duplicate to the cell plates. After incubation at 37° C. in a humidified incubator for 3 days (P388, B16) or 6 days (HT-29, MCF-7M), the plates were centrifuged briefly and 100 μl of the growth medium was removed. Cell cultures were incubated with 50 μl of 3-(4,5-dimethylthiazol-2-yl)-2,5-diphenyl-tetrazolium bromide [MTT, 1 mg/ml in Dulbecco's phosphate buffered saline (PBS)] for 4 hr at 37° C. The resulting purple formazan precipitate was solubilized with 200 μl of 0.04N HCl in isopropyl alcohol. Absorbance was monitored in a BioRad Model 3550 Microplate Reader at a test wavelength of 570 nm and a reference wavelength of 630 nm. The absorbance was transferred to a PC 486 computer. The IC50 values were determined by a computer program (EZ-ED50) that fit all of the data to the following four-parameterlogistic equation:
(§5) Y=((Am -Ao)/(1+(X/IC50)^n))+Ao
(§6) where Am is the absorbance of control cells, Ao is the absorbance of cells in the presence of highest agent concentration, Y is the observed absorbance, X is the agent concentration, IC50 is the concentration of agent that inhibits the cell growth by 50% of control cells (based on the absorbance) and n is the slope of the curve.

Data set [1] relates to HT29 human colon carcinoma cell line. Briefly: Growth inhibition (MTT), HT29 human colon carcinoma cell line. Type of data set: cell-based. Particulars: 6 days incubation.
From the text: as §3, §4, §5, §6

For data set [2], the system named is P388 murine leukemic cell line. The experiment in a line: Growth inhibition (MTT), P388 murine leukemic cell line. Particulars: Mus musculus, 72 h, 3 days incubation. The class given is cell-based. An excerpt: P388 murine leukemic cell line was obtained from the DCT Tumor Repository (National Cancer Institute, Frederick Cancer Research and Development, Frederick Md. 21702). HT29 Human Colon Carcinoma cell line was obtained from the American Type Culture Collection (12301 Parklawn Drive, Rockville, Md. 20852). B16 Melanoma cell line was obtained from DuPont Merck Pharmaceutical Company (Glenolden, Pa. 19036). MCF-7 Human Breast Carcinoma cell line was a gift from Dr. K. Osborne (Department of Medicine, The University of Texas Health Science Center at San Antonio, San Antonio, Tex. 78284). All cell lines were incubated at 37° C. in a humidified atmosphere of 5% CO2 -95% air. […]
Exponentially growing cells (1-2×10^3 cells, unless specified otherwise) in 0.1 ml medium were seeded on day 0 in a 96-well microtiter plate. […] Absorbance was monitored in a BioRad Model 3550 Microplate Reader at a test wavelength of 570 nm and a reference wavelength of 630 nm. The absorbance was transferred to a PC 486 computer. The IC50 values were determined by a computer program (EZ-ED50) that fit all of the data to the following four-parameterlogistic equation: […]

Data set [3] deals with MCF-7 human breast carcinoma cell line. Briefly: Growth inhibition (MTT), MCF-7 human breast carcinoma cell line. Type of data set: cell-based. Conditions: 6 days incubation.
From the text: as §3, §4, §5, §6

The target of data set [4] is poly-(dG.dC)-poly-(dG.dC). Briefly: Ethidium bromide displacement assay, poly(dG.dC)-poly(dG.dC). Type of data set: binding. Conditions: 50% reduction of ethidium bromide fluorescence, pH 7.0, read-out: FI50 (the source's name). The procedure:
as §1
as §2, with “A blank was run on the UV spectrophotometer. 20 μl of the DNA stock of unknown concentration was then added into the cuvette.” left out, “The solution was transferred to a clean tube.” left out, “The concentration of lambda DNA stock was calculated to be A260 /7.0×1000 (in μM).” left out

A further data set concerns the target Lambda DNA. Briefly: Ethidium bromide displacement assay, Lambda DNA. The class given is binding. Conditions: 50% reduction of ethidium bromide fluorescence, pH 7.0, read-out: FI50 (the source's name). The procedure: as §1
as §2, with “A blank was run on the UV spectrophotometer. 20 μl of the DNA stock of unknown concentration was then added into the cuvette.” left out, “The solution was transferred to a clean tube.” left out, “The concentration of lambda DNA stock was calculated to be A260 /7.0×1000 (in μM).” left out

Data set [5] addresses poly-(dA.dT)-poly-(dA.dT). Briefly: Ethidium bromide displacement assay, poly(dA.dT)-poly(dA.dT). The class given is binding. Particulars: 50% reduction of ethidium bromide fluorescence, pH 7.0, read-out: FI50 (the source's name). As to the method:
as §1
as §2, with “A blank was run on the UV spectrophotometer. 20 μl of the DNA stock of unknown concentration was then added into the cuvette.” left out, “The solution was transferred to a clean tube.” left out, “The concentration of lambda DNA stock was calculated to be A260 /7.0×1000 (in μM).” left out

For data set [6] the following is noted: human, in vivo; cited from earlier work.

On to `CN(C)CCN1C(=O)c2cccc3cc(N)cc(c23)C1=O` [amonafide], for which, in the data set on topoisomerase II, the “intercalator-stabilized-topoisomerase II-DNA cleavable complex formation” value was “result in intercalator-stabilized-topoisomerase II-DNA cleavable complex formation” and the “topoisomerase II inhibition” value is on record as “inhibit topoisomerase II”.
With `O=C1c2c(O)ccc(O)c2C(=O)c2c(NCCNCCO)ccc(NCCNCCO)c21` [mitoxantrone], in the data set with human cancers, the clinical anti-tumor activity result is reported as “exhibit clinical anti-tumor activity”.
For the compound `O=C1c2cccc3cc([N+](=O)[O-])cc(c23)C(=O)N1CCNCCOCCN1C(=O)c2cccc3cc([N+](=O)[O-])cc(c23)C1=O` [Compound 6], in the data set with B16 melanoma (15 mg/kg), the “Wt. Ch. (Day 7)” value is recorded as -7.4%. Moreover, in the data set with B16 melanoma (comparator DMP840), the “activity against B16 melanoma compared with DMP840” value is “more effective against B16 melanoma”. Also, the “activity compared with DMP840, compounds 22 and 23, and cytoxan” value in the data set with B16 melanoma (comparators DMP840, 22, 23, cytoxan) is recorded as “more active”. In addition, in the data set with DNA (FIG. 1, graded concentrations), the “Displacement of ethidium bromide / decrease in fluorescence intensity” value is reported as “dose-dependent decrease in fluorescence intensity”. In addition, the IC50 in the data set on B16 melanoma cell line was 11 nM; in [1], 3 nM; in data set [2] it was 35 nM; in data set [3], 2.6 nM.
For `O=C1c2cccc3cc([N+](=O)[O-])cc(c23)C(=O)N1CCOCCOCCN1C(=O)c2cccc3cc([N+](=O)[O-])cc(c23)C1=O` [Compound 19, 5-[2-(3-Nitronaphthalene-1,8-dicarboximido)ethoxy]-1-(3-nitronaphthalene-1,8-dicarboximido)-3-oxapentane], in the data set on DNA, the “DNA binding (in words)” value was “did not bind to DNA” and the “Ratio (AT/GC)” value turned out to be 1.7. For the same compound, the “in vitro anticancer activity against B16 melanoma (in words)” value in the data set with B16 melanoma cell line (B16 melanoma in vitro) is “potent anticancer activity against this melanoma type”.
Turning to `O=C1c2c(O)cccc2-c2nn(CCNCCO)c3ccc(NCCNCCO)c1c23` [DuP 941], the clinical anti-tumor activity entry in the data set on human cancers is on record as “exhibit clinical anti-tumor activity”.
Regarding `O=C1c2cccc3cc([N+](=O)[O-])cc(c23)C(=O)N1CCNCCNCCN1C(=O)c2cccc3cc([N+](=O)[O-])cc(c23)C1=O` [Compound 22, 2,2'[1,2-ethanediylbis[imino(2,1-ethanediyl)]]-bis[5-nitro-1H-benz[de]isoquinoline-1,3-(2H)-dione] dimethanesulfonate], the “Wt. Ch. (Day 7)” value in the data set on B16 melanoma (2.5 mg/kg) is listed as -0.17%. In addition, the IC50 in the data set on B16 melanoma cell line stood at 4.3 nM; in [4] it was 48 nM; in data set [1] (Homo sapiens, HT-29, 144 h), 0.48 nM; on Lambda DNA, 53 nM; in data set [5], 787 nM; in data set [3], 0.53 nM.
As to `COc1cccc2c1C(=O)c1c(O)c3c(c(O)c1C2=O)C[C@@](O)(C(C)=O)C[C@@H]3O[C@H]1C[C@H](N)[C@H](O)[C@H](C)O1` [daunorubicin], in data set [6], the cardiomyopathy entry was “limited by an unusual cardiomyopathy”.
For the compound `O=C1c2cccc3cc([N+](=O)[O-])cc(c23)C(=O)N1CCNCCOCCN1C(=O)c2cccc3cc([N+](=O)[O-])cc(c23)C1=O` [Compound 5, 5-[2-(3-Nitronaphthalene-1,8-dicarboximido)ethylamino]-1-(3-nitronaphthalene-1,8-dicarboximido)-3-oxapentane], in the data set with DNA, the “Ratio (AT/GC)” value came out at 73.5. The IC50 in the data set on B16 melanoma cell line (Mus musculus, B16, 72 h) came to 20 nM; in data set [4], 71 nM; in data set [1] (Homo sapiens, HT-29, 144 h) it was 3 nM; at Lambda DNA, 241 nM; in data set [5] it was 5220 nM; in data set [3] it was 1 nM.
As for `O=C1c2cccc3cc([N+](=O)[O-])cc(c23)C(=O)N1CCNCCNCCN1C(=O)c2cccc3cc([N+](=O)[O-])cc(c23)C1=O` [Compound 23, 2,2'[1,2-ethanediylbis[imino(2,1-ethanediyl)]]-bis[5-nitro-1H-benz[de]isoquinoline-1,3-(2H)-dione] monomethanesulfonate], in the data set on B16 melanoma (2.5 mg/kg), the “Wt. Ch. (Day 7)” value is on record as 0.95%. The IC50 with B16 melanoma cell line came to 12.9 nM; in data set [1], 0.52 nM; in [2], 6 nM; in [3] it was 1.39 nM.
In the case of `COc1cc(NS(C)(=O)=O)ccc1Nc1c2ccccc2nc2ccccc12` [amsacrine], the clinical anti-tumor activity entry in the data set on human cancers is given as “exhibit clinical anti-tumor activity”.
